Measurements: patent US4859664A, “Derivatives of 2,3,4,5,6,7-hexahydro-2,7-methano-1,5-benzoxazonines and -1,4-benzoxazonines, processes for their production and their use as pharmaceuticals” (priority 1986, dated 1989)
Where a name gives a salt, the structure may show the parent alone. Read-outs that look alike come from different tables or passages of the source.

How the values were obtained:
[1] = assay type: in vivo, male NMRI mice
Method: (§1) […]. They were given a standard feed and water ad libitum up to the commencement of the experiments.
(§2) The test compounds were administered in a volume of 10 ml./kg./body weight per mouse. As carrier, there was used physiological sodium chloride solution or a suspension of 0.5% tragacanth in physiological sodium chloride solution.
(§3) The experimental results are given as average values with a mean error of the average value (x±S.E.M.). The ED50 values were calculated according to Litchfield and Wilcoxon (J. Pharmacol. Exp. Ther., 96, 99/1949). The compounds were thereby tested in 4 dosages (p≤0.5).
(§4) For the significance calculation, there was used Student's t test (see Angewandte Statistik, pub. Stringer Verlag, Berlin, Heidelberg, 242/1983), as well as the range sum test of Mann and Withney (Ann. Math. stat., 50, 1818/1947).
(§5) 1.1. In the acetic acid writhing test (see R. Koster et al., Fed. proc., 18, 412/1954), the typical stretching movements referred to as "writhing", were produced by the intraperitoneal administration of a 0.6% acetic acid solution. 30 minutes previously, the substance to be tested was administered subcutaneously (s.c.) or orally ([…].) to the animals. 3 minutes after administration of the acetic acid solution, the total number of stretching movements in a period of time of 10 minutes was ascertained. From the decrease of the stretching reactions due to the action of the test compound in comparison with non-pretreated control groups, there was determined the percentage inhibition action.

[2] = influencing of hexobarbital narcosis; assay type: in vivo, male NMRI mice
Method: as §1, §2, §3
4. Influencing of hexobarbital narcosis.
The test compounds were administered subcutaneously to 5 animals per dosage group. After 30 minutes, 100 mg./kg. hexobarbital sodium was administered intraperitoneally. 2 to 3 minutes after this injection, the animals allowed themselves to be laid on their backs. For each animal, there was measured the time in minutes from the commencement of the back position up to the time when the animals themselves twice successively again assumed the abdominal position.

[3] = influencing of the amphetamine group toxicity; assay type: in vivo, male NMRI mice; details: amphetamine control group, 15 mg. s.c.
Method: as §1, §2
3. Influencing of the amphetamine group toxicity.
There was investigated the influence of the test compounds on the mortality of amphetamine-treated, aggregated mice. The dosaging of d-amphetamine was 15 mg./kg., which should permit the recognition not only of a synergism but also of an antagonism towards a sympathomimetic compound. Carrying out the experiment:
30 minutes after the subcutaneous administration of the test substance, the animals received subcutaneously 15 mg./kg. of d-amphetamine sulphate. The number of dead animals was recorded after 2, 4 and 7 hours. For the maintenance of the group size, the dead animals were replaced by untreated animals (6 animals/dosage group).

[4] = testing for ataxia (rotating rod test); assay type: in vivo, male NMRI mice
Method: (§6) For the pharmacological investigations described in the following, there were used male NMRI mice with a weight of from 15 to 30 g. The animals were kept under usual laboratory conditions, randomised and subjected to a light-dark change with a 12 hour rhythm. They were given a standard feed and water ad libitum up to the commencement of the experiments.
as §2
There was used the rotating rod test (see F. Gross et al., Schweiz. Med. Wschr., 85, 305/1955).
5 animals per dosage group were trained to keep themselves on a horizontally rotating rod made of synthetic resin (16 rpm). 40, 80 and 120 minutes after the subcutaneous administration of the test compounds, the animals were again tested. From the number of animals which fell off prematurely, there was determined the disturbance of the movement coordination.

[5] = tonus reduction on striated musculature; assay type: in vivo, male NMRI mice; details: 5 mg./kg. s.c.
Method: as §6, §2
6. Tonus reduction on striated musculature.
The test used is described by J. P. Chambon et al. (Arzneimittelforschung (Drug Research), 35 (II), (10), 1572/1985).
5 animals per dosage group were placed with their front paws on a horizontal metal rod (diameter 3 mm., length 20 cm.) which was fixed 30 cm. above a laboratory bench. Mice with normal muscle tonus climbed within 5 seconds on to the rod with at least one rear paw.
40, 80 and 120 minutes after the subcutaneous administration of the test compound, the animals were again tested for this ability and the number of incapable animals was recorded.

[6] = assay type: in vivo, male NMRI mice; remark: listed apart in the source
Method: as §1, §2
2. Development of dependency.
Withdrawal jumps of the mouse (see J. K. Saelens et al., Arch. Int. Pharmacodyn. Ther., 190, 213/1971).
Mice which were dependent upon morphine or other opiates react, when treated with morphine antagonists, with a flight reaction (see F. Huidobro and C. Maggiolo, Arch. Int. Pharmacodyn. Ther., 158, 97/1965); E. L. Way et al., Science, 162, 1290/1968). This flight reaction manifests itself in very vigorous jumping reactions which continue for about 10 minutes. From the number of reacting animals and especially from the jump frequency per animal, there can be deduced the strength of the withdrawal symptoms and thus the degree of dependency upon the test compound. Carrying out of the test:
The test and standard compounds were administered subcutaneously according to the scheme shown in the following Table III in increasing dosages over the course of 2 days.
For the provocation of the withdrawal jumps, the animals received intraperitoneally, 2 hours after the last compound administration, 30 mg./kg. naloxone hydrochloride.
Immediately after the administration of the naloxone, the animals were placed individually in a 5 liter glass beaker. Subsequently, the number of jump movements was recorded during the course of 10 minutes. For evaluation, the number of animals reacting the withdrawal jumps, as well as the average number of jumps per animal, was used.
The animals of the naloxone control group were, up to the administration of naloxone, treated with a 0.9% aqueous solution of sodium chloride (6 animals/dosage group).

[7] = assay type: in vivo, male NMRI mice; details: given without sign
Method: They were given a standard feed and water ad libitum up to the commencement of the experiments.
as §2, §3, §4, §5
Naloxone-antagonistic action in the writhing test.
20 Minutes before the subcutaneous administration of the test compounds, the animals were given 20 mg./kg. naloxone hydrochloride subcutaneously. The further carrying out of the experiments was as described above.

## CC1CCCC2C3CNCCC12Oc1ccccc13 (stereo not drawn) [Example 12, B/C-trans-1,2,3,4,4a,9a-hexahydro-4-methyl-4a,9-(3-azabutano)-xanthene]
[1]; 25 mg./kg. s.c.
  inhibiting action in writhing test: 24%
[1]; 50 mg./kg. s.c.
  inhibiting action in writhing test: 79%

## CC(N)Cc1ccccc1.O=S(=O)(O)O (stereo not shown) [amphetamine sulphate, reference compound]
[2]; 1.0 mg/kg sc
  change with regard to hexabarbital sodium: -43.2 min
[2]; 1.0 mg/kg sc, hexobarbital sodium 100 mg./kg. i.p.
  period of narcosis ± SEM: 49.2 ± 14.6 min

## CC(N)Cc1ccccc1 (stereo not shown) [amphetamine, reference compound]
[3]
  % of deceased animals after 2 hrs.: 0%
  % of deceased animals after 4 hrs.: 33%
  % of deceased animals after 7 hrs.: 0%
  % of deceased animals, total: 33.3%

## COc1ccc2c3c1O[C@H]1[C@@H](O)C=C[C@H]4[C@@H](C2)N(C)CC[C@@]341 [codeine phosphate, reference compound]
[2]; 50 mg/kg sc
  change with regard to hexabarbital sodium: +51.2 min.
[2]; 50 mg/kg sc, hexobarbital sodium 100 mg./kg. i.p.
  period of narcosis ± SEM: 143.6 ± 10.5 min

## CN1C(=O)CN=C(c2ccccc2)c2cc(Cl)ccc21 [diazepam, reference compound]
[4]; 5 mg/kg s.c.
  change of the maintenance time in % compared with the control group, after 40 min.: -87%
  change of the maintenance time in % compared with the control group, after 80 min.: -73%
  change of the maintenance time in % compared with the control group, after 120 min.: -22%
[5]
  relaxing action: 93%

## CN1C(=O)NC(=O)C(C)(C2=CCCCC2)C1=O (stereo not shown) [hexobarbital, reference compound]
[2]; hexobarbital alone, 100 mg/kg ip
  period of narcosis ± SEM: 92.4 ± 17.1 min

## CN1CC[C@]23c4c5ccc(O)c4O[C@H]2[C@@H](O)C=C[C@H]3[C@H]1C5.Cl [morphine HCl, reference compound]
[6]; mouse, in vivo
  % of reacting animals: 100%

## CCC1(c2ccccc2)C(=O)NC(=O)NC1=O [phenobarbital, reference compound]
[4]; 30 mg/kg s.c.
  change of the maintenance time in % compared with the control group, after 40 min.: -29%
  change of the maintenance time in % compared with the control group, after 80 min.: -21%
  change of the maintenance time in % compared with the control group, after 120 min.: -37%
[4]; 50 mg/kg s.c.
  change of the maintenance time in % compared with the control group, after 40 min.: -54%
  change of the maintenance time in % compared with the control group, after 80 min.: -46%
  change of the maintenance time in % compared with the control group, after 120 min.: -42%

## COc1cccc(C2(O)CCCCC2CN(C)C)c1 (stereo not shown) [tramadol HCl, reference compound]
[6]; s.c. increasing dosages over 2 days, naloxone i.p., 10 minutes
  % of reacting animals: 83.3%

## COc1cccc(C2(O)CCCCC2CN(C)C)c1 (stereo not shown) [tramadol, 2-[(dimethylamino)-methyl]-1-(3-methoxyphenyl)-cyclohexanol, reference compound]
[7]; 10 mg/kg s.c.
  change in % (with vs without naloxone): 39.0%
[7]; 20 mg/kg s.c.
  change in % (with vs without naloxone): 30.7%
